Laboratory results taken from patent publication US12643867B2, “Compositions and uses thereof” (University of Virginia Patent Foundation, priority 2017, dated 2026).

Legend:
Experiment in all cases: SILAC LC-MS ATP acyl phosphate probe competition, native kinases in HEK293T
Type in all cases: binding
[1] = target: T1, CDK2 (Cell division protein kinase 2) (Homo sapiens, UniProt P24941); settings: site Lys2; ATP 1 mM; Ketanserin, Ritanserin 100 μM; RF001 1 mM
T1 construct: measured against >50 native kinases quantified in HEK293T soluble proteomes; endogenous in cells; host or cells: HEK293T soluble proteome
Experimental: (§1) Proteomes were diluted to 2 mg/ml in kinase buffer. The light and heavy proteomes (0.5 mg, 250 μL total reaction volume) were pre-treated with vehicle or compound, respectively (5 μL, DMSO (light) or 50× stock in DMSO (heavy)), mixed gently, and incubated at 25° C. for 30 min. […] After incubation, matched light and heavy proteomes were transferred and mixed in a 1:1 ratio in a two-dram vial containing 4:1:3 MeOH/CHCl3/H2O (2 mL MeOH, 500 AL CHCl3, 1.5 mL H2O) for extraction of proteins to remove excess probe, quickly vortexed, and centrifuged at 1,400×g for 3 min to pellet protein. Organic and aqueous layers were removed using a Pasteur pipette, and the protein pellet was transferred to a screw-top tube in 600 μL MeOH. A second extraction was performed by adding CHCl3 (150 μL) and H2O (600 μL) to each sample, vortexed, and centrifuged at 1,400×g for 3 min to pellet protein. Organic and aqueous layers were removed by pipetting. MeOH added to pellet (600 μL) and pellets were re-suspended by sonication (3×1 sec pulse, 20% amplitude) for a final extraction. Samples were then centrifuged at 17,000×g for 5 min to pellet protein and MeOH was removed by pipetting. The pellets were re-suspended in 10 M urea/25 mM ammonium bicarbonate ([…]), brought to a final volume of 1 mL with 25 mM ammonium bicarbonate, reduced with 10 mM DTT for 15 min at 65° C. allowed to cool, and then alkylated with 40 mM iodoacetamide for 30 min at 25° C. in the dark. To desalt the samples, each was transferred to a two-dram glass vial, and to the vial 4:1:2 MeOH/CHCl3/H2O (2 mL MeOH, 500 AL CHCl3, 1 mL H2O) was added. The vials were vortexed quickly, spun at 1.400×g for 3 min to pellet protein, and aqueous and organic layers were removed using a Pasteur pipette. The resulting protein pellet was transferred to a screw-top tube in 600 μL MeOH, and then CHCl3 (150 μL) and HO (600 μL) were added to extract protein a second time. The samples were vortexed quickly, centrifuged at 1,400×g to pellet protein, and the aqueous and organic layers were removed by pipetting. Resulting protein pellet was suspended in MeOH (600 μL) via sonication (3×1 sec pulse, 20% amplitude), centrifuged at 17,000×g for 5 min to pellet protein, and MeOH removed by pipetting. Protein pellets were then re-suspended in 25 mM ammonium bicarbonate (500 μL) and digested with 7.5 μg Trypsin/Lys-C(Promega, 15 μL, 0.5 μg/μL) for 3 h at 37° C. Avidin-agarose beads (Thermo Scientific Pierce, 100 AL aliquot per sample) were washed three times by adding 10 mL DPBS, centrifuged at 1,400×g for 1 min, and decanting. This wash step was repeated for a total of 3 times. Digested protein samples were mixed with washed avidin beads (100 μL) and brought to a volume of 5.5 mL with DPBS in a 15 mL conical and rotated for 1 h to enrich samples for the covalent desthiobiotin modification. The beads were washed with 25 mM ammonium bicarbonate (3× with 10 mL, centrifuge at 1,400×g for 3 min, decant) and then H2O (3× with 10 mL, centrifuge at 1,400×g for 3 min, decant). Washed beads were then transferred to a low-bind microfuge tube, centrifuged at 1,400×g for 3 min, allowed to rest for 1 min to settle beads, and then excess H2O was removed carefully using a gel-loading pipette tip. To elute peptides, 100 μL of elution buffer (50% acetonitrile, ACN; 0.1% formic acid) was added to each sample and incubated for 3 min. Beads were spun down at 1.400×g for 3 min, allowed to rest for 1 min to settle beads, and then 75 μL of peptide-containing supernatant was removed carefully using a gel-loading pipette tip and transferred to a new low bind centrifuge tube. This step was repeated two more times with 75 μL of elution buffer and all eluent were collected into the same centrifuge tube (˜225 μL total). Peptides were dried on a speed vacuum, resulting peptide samples acidified in 5% (v/v) formic acid, and stored at −80° C. until analysis.
(§2) The peptide samples were analyzed by liquid chromatography-mass spectrometry. […]

[2] = target: T2, CDK5 (Cell division protein kinase 5) (Homo sapiens, UniProt Q00535); settings: site Lys2; ATP 1 mM; Ketanserin, Ritanserin 100 μM; RF001 1 mM
T2 construct: measured against >50 native kinases quantified in HEK293T soluble proteomes; endogenous in cells; host or cells: HEK293T soluble proteome
Experimental: as §1, §2

[3] = target: T3, CHK2 (Serine/threonine-protein kinase Chk2) (Homo sapiens, UniProt O96017); settings: for SILAC ratio, CHK2 probe-modified peptide: site Lys1, ATP 1 mM, Ketanserin, Ritanserin 100 μM, RF001 1 mM
T3 construct: measured against >50 native kinases quantified in HEK293T soluble proteomes; endogenous in cells; host or cells: HEK293T soluble proteome
Experimental: as §1, §2

[4] = target: T4, KCC2D (Calcium/calmodulin-dependent protein kinase type II delta chain) (Homo sapiens, UniProt Q13557); settings: site Lys1; ATP 1 mM; Ketanserin, Ritanserin 100 μM; RF001 1 mM
T4 construct: measured against >50 native kinases quantified in HEK293T soluble proteomes; endogenous in cells; host or cells: HEK293T soluble proteome
Experimental: as §1, §2

[5] = target: T5, KCC2G (Calcium/calmodulin-dependent protein kinase type II gamma chain) (Homo sapiens, UniProt Q13555); settings: site Lys1; ATP 1 mM; Ketanserin, Ritanserin 100 μM; RF001 1 mM
T5 construct: measured against >50 native kinases quantified in HEK293T soluble proteomes; endogenous in cells; host or cells: HEK293T soluble proteome
Experimental: as §1, §2

[6] = target: T6, MP2K6 (Dual specificity mitogen-activated protein kinase kinase 6) (Homo sapiens, UniProt P52564); settings: site Lys1; ATP 1 mM; Ketanserin, Ritanserin 100 μM; RF001 1 mM
T6 construct: Native kinases; endogenous in cells; host or cells: HEK293T soluble proteome
T6 sequence (P52564 1-334): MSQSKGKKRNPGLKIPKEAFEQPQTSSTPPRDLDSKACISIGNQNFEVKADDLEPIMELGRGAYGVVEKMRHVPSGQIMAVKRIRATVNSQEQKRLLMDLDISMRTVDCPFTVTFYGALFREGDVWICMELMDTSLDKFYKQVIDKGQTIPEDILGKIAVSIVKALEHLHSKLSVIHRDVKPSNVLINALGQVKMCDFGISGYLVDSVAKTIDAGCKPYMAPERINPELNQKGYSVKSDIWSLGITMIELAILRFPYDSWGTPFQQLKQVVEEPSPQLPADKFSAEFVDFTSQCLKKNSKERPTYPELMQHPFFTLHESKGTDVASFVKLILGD
Experimental: as §1, §2

[7] = target: T7, RAF1 (RAF proto-oncogene serine/threonine-protein kinase) (Homo sapiens, UniProt P04049); settings: site Lys2; ATP 1 mM; Ketanserin, Ritanserin 100 μM; RF001 1 mM
T7 construct: Native kinases; endogenous in cells; host or cells: HEK293T soluble proteome
Experimental: as §1, §2

T2 sequence (Q00535 whole entry): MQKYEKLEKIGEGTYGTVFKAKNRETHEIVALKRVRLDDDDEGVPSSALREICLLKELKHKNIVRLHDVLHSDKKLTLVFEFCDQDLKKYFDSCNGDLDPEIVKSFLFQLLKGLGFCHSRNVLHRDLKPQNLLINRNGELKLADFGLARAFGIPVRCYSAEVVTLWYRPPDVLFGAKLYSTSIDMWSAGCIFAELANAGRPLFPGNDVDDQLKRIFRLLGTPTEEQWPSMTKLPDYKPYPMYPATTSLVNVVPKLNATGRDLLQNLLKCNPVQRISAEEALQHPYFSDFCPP
T4 sequence (Q13557 whole entry): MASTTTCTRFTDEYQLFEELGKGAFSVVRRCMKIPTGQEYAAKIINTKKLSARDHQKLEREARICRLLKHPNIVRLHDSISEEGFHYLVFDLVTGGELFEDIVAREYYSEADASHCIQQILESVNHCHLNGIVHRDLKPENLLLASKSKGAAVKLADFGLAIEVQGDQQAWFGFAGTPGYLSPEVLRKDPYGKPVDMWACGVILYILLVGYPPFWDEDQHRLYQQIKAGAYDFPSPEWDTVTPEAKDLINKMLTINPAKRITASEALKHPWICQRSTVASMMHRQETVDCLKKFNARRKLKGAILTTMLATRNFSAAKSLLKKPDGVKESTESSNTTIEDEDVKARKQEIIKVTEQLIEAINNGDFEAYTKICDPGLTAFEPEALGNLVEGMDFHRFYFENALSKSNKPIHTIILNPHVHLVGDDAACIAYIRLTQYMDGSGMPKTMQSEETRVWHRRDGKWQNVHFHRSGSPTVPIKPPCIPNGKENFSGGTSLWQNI
T3 sequence (O96017 whole entry): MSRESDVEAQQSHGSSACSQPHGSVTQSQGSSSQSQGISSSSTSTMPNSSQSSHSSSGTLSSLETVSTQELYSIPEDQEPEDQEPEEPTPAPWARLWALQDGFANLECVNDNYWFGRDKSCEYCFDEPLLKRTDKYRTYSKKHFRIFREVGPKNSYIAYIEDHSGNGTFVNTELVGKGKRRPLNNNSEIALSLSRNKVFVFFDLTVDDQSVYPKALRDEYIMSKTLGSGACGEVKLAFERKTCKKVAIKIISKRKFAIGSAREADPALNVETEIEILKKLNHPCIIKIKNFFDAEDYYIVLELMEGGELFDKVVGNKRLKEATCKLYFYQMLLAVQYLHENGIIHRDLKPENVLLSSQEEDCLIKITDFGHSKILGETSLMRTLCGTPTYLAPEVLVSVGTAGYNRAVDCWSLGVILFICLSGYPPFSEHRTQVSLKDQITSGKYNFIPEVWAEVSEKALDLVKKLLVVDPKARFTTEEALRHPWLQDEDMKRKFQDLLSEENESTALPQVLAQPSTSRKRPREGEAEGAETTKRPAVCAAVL
T5 sequence (Q13555 whole entry): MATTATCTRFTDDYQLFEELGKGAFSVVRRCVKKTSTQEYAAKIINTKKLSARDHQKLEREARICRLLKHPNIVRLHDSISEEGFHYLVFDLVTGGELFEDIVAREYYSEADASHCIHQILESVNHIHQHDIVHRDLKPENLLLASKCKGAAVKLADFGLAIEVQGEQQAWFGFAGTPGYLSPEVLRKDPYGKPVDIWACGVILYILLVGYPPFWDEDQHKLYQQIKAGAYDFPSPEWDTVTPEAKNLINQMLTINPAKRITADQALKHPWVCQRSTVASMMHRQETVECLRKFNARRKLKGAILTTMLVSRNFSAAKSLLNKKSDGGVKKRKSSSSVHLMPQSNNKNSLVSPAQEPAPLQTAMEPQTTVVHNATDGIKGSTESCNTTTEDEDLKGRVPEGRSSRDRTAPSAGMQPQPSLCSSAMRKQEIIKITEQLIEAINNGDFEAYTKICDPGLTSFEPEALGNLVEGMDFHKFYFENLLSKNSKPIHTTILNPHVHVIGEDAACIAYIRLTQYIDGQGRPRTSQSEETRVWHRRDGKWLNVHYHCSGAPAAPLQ
T7 sequence (P04049 whole entry): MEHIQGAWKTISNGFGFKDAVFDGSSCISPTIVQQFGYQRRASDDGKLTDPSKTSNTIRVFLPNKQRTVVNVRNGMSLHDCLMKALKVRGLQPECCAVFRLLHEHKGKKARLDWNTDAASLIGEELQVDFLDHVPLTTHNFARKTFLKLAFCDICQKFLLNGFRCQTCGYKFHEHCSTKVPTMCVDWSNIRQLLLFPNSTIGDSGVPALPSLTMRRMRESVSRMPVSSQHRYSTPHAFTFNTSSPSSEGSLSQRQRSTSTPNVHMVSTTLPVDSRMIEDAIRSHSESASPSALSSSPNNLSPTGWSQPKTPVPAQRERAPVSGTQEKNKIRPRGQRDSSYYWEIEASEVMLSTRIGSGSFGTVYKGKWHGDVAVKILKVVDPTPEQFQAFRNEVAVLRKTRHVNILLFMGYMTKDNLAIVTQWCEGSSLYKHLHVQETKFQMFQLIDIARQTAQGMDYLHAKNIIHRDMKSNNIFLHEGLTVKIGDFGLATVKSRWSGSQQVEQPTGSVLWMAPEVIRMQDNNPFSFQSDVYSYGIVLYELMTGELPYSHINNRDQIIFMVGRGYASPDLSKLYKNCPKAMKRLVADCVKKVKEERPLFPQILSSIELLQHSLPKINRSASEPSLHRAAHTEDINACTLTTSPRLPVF

Row | SILAC ratio, CDK2 probe-modified peptide [1] | SILAC ratio, CDK5 probe-modified peptide [2] | SILAC ratio, CHK2 probe-modified peptide [3] | SILAC ratio, KCC2D probe-modified peptide [4] | SILAC ratio, KCC2G probe-modified peptide [5] | SILAC ratio, MP2K6 probe-modified peptide [6] | SILAC ratio, RAF1 probe-modified peptide [7] | CHK2 ATP acyl-phosphate labeling response (words, FIG. 20) ([3]; H82 and HEK293T, 1 mM RF001) | Compound
1 | 1.6 | 1.3 | 1.6 | 1.5 | 1.5 | 1.4 | 1.4 |  | O=C(c1ccc(F)cc1)C1CCN(CCn2c(=O)[nH]c3ccccc3c2=O)CC1 [Ketanserin]
2 | 0.7 | 1.1 | 0.2 | 1.2 | 1.6 | 1.1 | 2.1 | activator of CHK2 | Fc1ccc(C(=C2CCNCC2)c2ccc(F)cc2)cc1 [RF001, 4-(Bis(4-fluorophenyl)methylene) piperidine]

Row | Compound | SILAC ratio, CDK2 probe-modified peptide [1] | SILAC ratio, CDK5 probe-modified peptide [2] | SILAC ratio, CHK2 probe-modified peptide [3] | SILAC ratio, KCC2D probe-modified peptide [4] | SILAC ratio, KCC2G probe-modified peptide [5] | SILAC ratio, MP2K6 probe-modified peptide [6] | SILAC ratio, RAF1 probe-modified peptide [7] | CHK2 ATP acyl-phosphate labeling response (words, FIG. 20) ([3]; H82 and HEK293T, 1 mM RF001)
3 | Cc1nc2sccn2c(=O)c1CCN1CCC(=C(c2ccc(F)cc2)c2ccc(F)cc2)CC1 [Ritanserin] | 2.9 | 1.9 | 2.2 | 2.3 | 2.7 | 2.2 | 3.9 | 
